No end group written: not given here. *: point of attachment. Biotin = O=C1N[C@H]2[C@H](CS[C@H]2CCCCC(=O)*)N1
Assays:
[1] = test system: B box-induced DC maturation; assay: Signalling inhibitors on B box-induced CD83 upregulation and IL-6 secretion in DCs; format: cell-based, human; settings: 30 min preincubation, then rB box 100 μg/ml, 48 h; SB203580 5 or 20 μM, PD98059 and TPCK 20 or 80 μM
Method: FIG. 6. B box causes […] upregulation and IL-6 secretion via a p38 dependent pathway. Immature d7 DCs were preincubated for 30 min with (i) DMSO, (ii) PD98059 at 20 (P20) or 80 (P80) μM, (iii) SB203580 at 5 (S5) or 20 (S20) μM, (iv) TPCK at 20 (T20) or 80 (T80) μM and then treated with rB box (100 μg/ml), or cultured with DMSO in the absence of B box (medium). 48 h after activation the DCs were assayed for the surface expression of CD83 by FACS and IL-6 secretion was measured by ELISA. The results shown are mean+/−SEM of three independent experiments using DCs generated from different donors.
The p38 MAPK-specific inhibitor, SB203580, a pyridinyl imidazole compound, the MEK inhibitor PD98059, and N-tosyl-L-phenylalanine chloromethyl ketone (TPCK) were purchased from Sigma. Because these required solubilization in DMSO, DMSO was used as a negative control.
To obtain insight into the roles of ERK and p38 MAPK pathways in B box-induced DC maturation, we used their specific inhibitors, PD98059 and SB203580, respectively. To analyze the role of NF-κB we used TPCK, a serine protease inhibitor that blocks nuclear translocation of Rel/NF-κB by preventing IκB degradation.

[2] = test system: human monocyte-derived DCs; assay: Cytokine and chemokine secretion by human immature monocyte-derived DCs (ELISA); format: cell-based; set-up: key to TNFα / IL-18 / IL-8 / IL-10 / IL-6 / IL-12: + indicates increase; − indicates no change compared to medium
Method: (§1) PBMCs were isolated from the blood of normal volunteers (Long Island Blood Services, Melville, N.Y.) over a Ficoll-Hypaque (Amersham Biosciences, Uppsala, Sweden) density gradient. CD14^+ monocytes were isolated from PBMCs by positive selection using anti-CD14 beads (Miltenyi Biotech., Auburn, Calif.) following the manufacturer's instructions. To generate DCs, CD14^+ cells were cultured in RPMI 1640 medium supplemented with 2 mM L-glutamine (GIBCO-BRL Life Technologies; Grand Island, N.Y.), 50 μM 2-mercaptoethanol (Sigma, St. Louis, Mo.), 10 mM HEPES (GIBCO-BRL), penicillin (100 U/ml)-streptomycin (100 μg/ml) (GIBCO-BRL), and 5% human AB serum (Gemini Bio-Products, Woodland, Calif.). Cultures were maintained for 7 days in 6-well trays (3×10^6 cells/well) supplemented with 1000 U GM-CSF per ml (Immunex, Seattle, Wash.) and 200 U IL-4 per ml (R&D Systems; Minneapolis, Minn.) at days 0, 2, 4 and 6.
At day 7 of culture, immature DCs were either left untreated (“immature”, IM), or were stimulated with indicated doses of (i) LPS (E. coli serotype 026:B6, Sigma), (ii) 500 ng/ml of trimeric CD40L (Alexis Biochemicals; San Diego, Calif.), (iii) a cocktail of cytokines (CyC) consisting of IL-6 at 1000 U/ml, TNFα at 10 ng/ml, IL-1β at 10 ng/ml (all from R&D Systems) and prostaglandin E2 (PGE-2) at 1 μg/ml (Sigma), or with (v) non-methylated CpG oligonucleotides (5′ […] 3′) at 30 μg/ml. The sequence of this oligonucleotide is known to induce DC maturation (4), except that it contains an unmodified phosphodiester backbone. In all experiments, DCs were analyzed 48 h after stimulation. All experiments using the rB box were performed in the presence of polymyxin B sufficient to neutralize greater than 10-fold more LPS than present in rB box preparations.
(§2) 48 h post activation, the production of cytokines and chemokines in cell culture supernatants was measured by ELISA (Pierce Boston Technology Center, SearchLight™ Proteome Arrays Multiplex Sample Testing Services, Woburn, Mass.).
as §1, with “DCs, CD 14^+” for “DCs, CD14^+”
(§3) At day 7 of culture, immature DCs were either left untreated, or were stimulated with indicated doses of HMGB1-Bx, HMGB1 peptides, or LPS (E. coli serotype 026:B6, Sigma). In all experiments, DCs were analyzed 48 h after stimulation.

murine BM-DCs [3] = assay: Cytokine and chemokine secretion by murine bone marrow-derived DCs (ELISA); format: cell-based, mouse; set-up: key to TNFα / IL-18 / IL-8 / IL-10 / IL-2 / IL-1β / IL-5 / IL-6 / IL-12: + indicates increase; − indicates no change compared to medium
Method: (§4) Bone marrow-derived DCs (BM-DC) were generated using modifications of the original method described by Inaba et al (42). In brief, bone marrow suspensions were incubated with red cell lysis buffer (PUREGENE™ RBC Lysis Solution, Gentra Systems, Minneapolis, Minn.) to remove red blood cells. After washing in media, lymphocytes and Ia-positive cells were killed with a cocktail of mAbs and rabbit complement for 60 min at 37° C. The mAbs were GK1.5 anti-CD4, TIB211 anti-CD8, TIB 120 anti-Ia, and TM 146 anti B220 (The Abs were kindly provided by Dr. Ralph Steinman). The cells were subsequently cultured in media containing 5% FCS and 10 ng/ml recombinant mouse GM-CSF (R&D Systems; Minneapolis, Minn.) for 7 days. For some experiments the cells were further purified at day 7 using CD11c^+-microbeads (Miltenyi Biotech., Auburn, Calif.) according to the manufacturer's instructions.
as §3, §2

murine BM-DCs [4] = assay: Phenotypic maturation of murine BM-DCs (surface markers, FACS); format: cell-based, mouse; settings: CD11c+ gated BM-DCs, 48 h; peptides 200 μg/ml
Method: as §4, §3
1×10^4 DCs were reacted for at least 20 min at 4° C. in 100 μl of PBS/5% FCS/0.1% sodium azide (staining buffer) with fluorescein isothiocyanate (FITC)-conjugated IgG mAb specific for CD86, CD40 and MHC-II (eBioscience). Cells were then washed 4 times with staining buffer, fixed in 10% formaldehyde in PBS (pH 7.2-7.4) and examined by flow cytometry using a FACScan (BD). In all experiments, isotype controls were included using FITC-conjugated irrelevant mAb of the same Ig class.

allogeneic T cells = assay: Mixed leukocyte reaction, stimulated murine BM-DCs with allogeneic T cells; format: cell-based, mouse; settings: BM-DCs from C57/BL6 mice; HMGB1-Bx 50 μg/ml, peptides 200 μg/ml, 48 h; 5-day co-culture
Method: T cells were isolated by negative selection using the mouse SpinSep antibody cocktail from StemCell Technologies (Vancouver, Calif.) according to the manufacturer's instructions. The cell purity of the isolated T cells was routinely ˜99% pure.
To assess levels of T cell activation and proliferation, cells were plated at 10^5 cells per well in a round-bottomed 96-well tray at DC:T cell ratios of 1:120 for 5 days in medium described above. The microcultures were pulsed with (^3H)-thymidine (1 μCi/well) for the final 8 h of culture. Cell cultures were harvested onto glass fiber filters with an automated multiple sample harvester and the amount of isotope incorporation was determined by liquid scintillation β-emission. Responses are reported as mean cpm of thymidine incorporation by triplicate cultures (+/−SEM).

[5] = Example 2, peptides 200 μg/ml, HMGB1-Bx 50 μg/ml, polymyxin B, 48 h, FIG. 8C
[6] = HUMAN DC, ELISA 48 h after exposure, compared to medium
[7] = Murine DC, ELISA 48 h after exposure, compared to medium
[8] = peptides 200 μg/ml, HMGB1-Bx 50 μg/ml, polymyxin B, 48 h

C[S+]([O-])c1ccc(-c2nc(-c3ccncc3)c(-c3ccc(F)cc3)[nH]2)cc1 (stereo not drawn) [SB203580]
B box induced secretion of IL-6 [1]: downregulated | B box-induced upregulation of CD83 [1]: completely abrogated

CSEYRPKIKGEHPGLSIG [Hp-106] (Biotin-CSEYRPKIKGEHPGLSIG; listed as Homo sapiens)
IL-6 release ([2]; Example 1, synthetic B box peptides at 200 μg/ml, FIGS. 3D, E): specifically stimulated IL-6 release | secretion of IL-6 ([2]; Example 2, peptides 200 μg/ml, HMGB1-Bx 50 μg/ml, polymyxin B, 48 h, FIG. 8A, 8B): induced secretion of IL-6 | secretion of IL-8 [2, 5]: not | secretion of IL-12 (p70) [2, 5]: increased secretion | secretion of IL-18 [2, 5]: increased secretion | secretion of TNF-α [2, 5]: increased secretion | IL-6 [2, 6]: + | IL-8 [2, 6]: − | IL-10 [2, 6]: − | IL-12 [2, 6]: + | IL-18 [2, 6]: + | TNFα [2, 6]: + | IL-1β (murine BM-DCs [3]; [7]): + | IL-2 (murine BM-DCs [3]; [7]): + | IL-5 (murine BM-DCs [3]; [7]): + | IL-6 (murine BM-DCs [3]; [7]): − | IL-8 (murine BM-DCs [3]; [7]): + | IL-10 (murine BM-DCs [3]; [7]): − | IL-12 (murine BM-DCs [3]; [7]): + | IL-18 (murine BM-DCs [3]; [7]): + | TNFα (murine BM-DCs [3]; [7]): + | activation of murine BM-DCs (murine BM-DCs [3]; peptides 200 μg/ml, 48 h): activated | secretion of IL-2 (murine BM-DCs [3]; [8]): enhanced secretion | secretion of IL-5 (murine BM-DCs [3]; [8]): enhanced secretion | secretion of IL-8 (murine BM-DCs [3]; [8]): enhanced secretion | secretion of IL-12 (p70) (murine BM-DCs [3]; [8]): enhanced secretion | secretion of IL-18 (murine BM-DCs [3]; [8]): enhanced secretion | secretion of TNF-α (murine BM-DCs [3]; [8]): enhanced secretion | secretion of IL-10 (murine BM-DCs [3]; peptides 200 μg/ml, polymyxin B, 48 h): enhanced secretion | surface expression of maturation markers (murine BM-DCs [4]): did not significantly enhance | T cell stimulatory activity of exposed BM-DCs in mixed lymphocyte reaction (allogeneic T cells): activated resting allogeneic T cells
